{
  "source": "patent US20050026968A1",
  "about": "“Heterocyclic amides with anti-tuberculosis activity” (priority 2003, published 2005)",
  "data": [
    {"tested_on": "M. tuberculosis H37Ra", "assay": "MIC against M. tuberculosis H37Ra, micro broth dilution in microtiter plates", "conditions": "not given", "units": {"MIC against whole cells": "µg/mL"}, "values": [
      {"smiles": "COc1ccc(NC(=O)c2ccc([N+](=O)[O-])o2)cc1Cl", "note": "[Compound 1]", "MIC against whole cells": 1.6}
    ]},
    {"tested_on": "M. tuberculosis H37Ra", "assay": "MIC against M. tuberculosis H37Ra, micro broth dilution in microtiter plates", "conditions": "Mycobacterium tuberculosis, H37RA", "units": {"MIC": "µg/mL"}, "values": [
      {"smiles": "CN1CCN(C(=O)c2ccc([N+](=O)[O-])o2)CC1", "note": "[Compound 76]", "MIC": 37.5}
    ]},
    {"tested_on": "M. tuberculosis H37Ra", "assay": "MIC against M. tuberculosis H37Ra, micro broth dilution in microtiter plates", "conditions": "Mycobacterium tuberculosis, H37RA, 168 h, read-out: TB MIC, Table 1; M. tuberculosis H37Ra, 7 days, MIC90 (>90% inhibition of growth)", "units": {"MIC": "µg/mL"}, "values": [
      {"smiles": "O=C(Nc1cccc(O)c1)c1ccc([N+](=O)[O-])o1", "note": "[Compound 35, 5-Nitro-furan-2-carboxylic acid(3-hydroxy-phenyl)-amide]", "MIC": 1.6},
      {"smiles": "COc1ccc(CNC(=O)c2ccc(Br)o2)cc1", "note": "[Compound 32, 5-Bromo-furan-2-carboxylic acid 4-methoxy-benzylamide]", "MIC": 200},
      {"smiles": "COc1cccc(NC(=O)c2ccc([S+]([O-])c3ccccc3)o2)c1", "note": "(stereo not shown) [Compound 38, 5-Benzenesulfinyl-furan-2-carboxylic acid(3-methoxy-phenyl)-amide]", "MIC": 6.25},
      {"smiles": "O=C(Nc1ccccc1)c1ccc([N+](=O)[O-])o1", "note": "[Compound 17, 5-Nitro-furan-2-carboxylic acid phenylamide]", "MIC": 0.8},
      {"smiles": "COc1ccc(CNC(=O)c2ccc([N+](=O)[O-])o2)cc1", "note": "[Compound 20, 5-Nitro-furan-2-carboxylic acid 4-methoxy-benzylamide]", "MIC": 0.1},
      {"smiles": "COc1cc(CNC(=O)c2ccc([N+](=O)[O-])o2)cc(OC)c1OC", "note": "[Compound 24, 5-Nitro-furan-2-carboxylic acid 3,4,5-trimethoxy-benzylamide]", "MIC": 0.8},
      {"smiles": "O=C(Nc1cnccn1)c1ccc([N+](=O)[O-])o1", "note": "[Compound 48, 5-Nitro-furan-2-carboxylic acid pyrazin-2-ylamide]", "MIC": 6.25},
      {"smiles": "O=C(NCc1ccccc1Cl)c1ccc([N+](=O)[O-])o1", "note": "[Compound 21, 5-Nitro-furan-2-carboxylic acid 2-chloro-benzylamide]", "MIC": 1.6},
      {"smiles": "O=C(NCCc1ccccc1)c1ccc([N+](=O)[O-])o1", "note": "[Compound 27, 5-Nitro-furan-2-carboxylic acid phenethyl-amide]", "MIC": 1.6},
      {"smiles": "O=C(NC1CCc2ccccc21)c1ccc([N+](=O)[O-])o1", "note": "(stereo not shown) [Compound 26, 5-Nitro-furan-2-carboxylic acid indan-1-ylamide]", "MIC": 3.1}
    ]},
    {"tested_on": "M. tuberculosis H37Ra", "assay": "MIC against M. tuberculosis H37Ra, micro broth dilution in microtiter plates", "conditions": "Mycobacterium tuberculosis, H37RA, Table 4; M. tuberculosis H37Ra, MIC90", "units": {"MIC": "µg/mL"}, "values": [
      {"smiles": "O=C(Nc1ccc(N2CCOCC2)cc1)c1ccc([N+](=O)[O-])o1", "note": "[Compound 54, 5-Nitro-furan-2-carboxylic acid(4-morpholin-4-yl-phenyl)-amide]", "MIC": 1.6},
      {"smiles": "O=C(Nc1cccc(N2CCN(Cc3ccccc3)CC2)c1)c1ccc([N+](=O)[O-])o1", "note": "[Compound 61, 5-Nitro-furan-2-carboxylic acid[3-(4-benzyl-piperazin-1-yl)-phenyl]-amide]", "MIC": 12.5},
      {"smiles": "O=C(c1ccc([N+](=O)[O-])o1)N1Cc2ccccc2C1", "note": "[Compound 71]", "MIC": 0.78},
      {"smiles": "O=C(Nc1cccc(N2CCC(Cc3ccccc3)CC2)c1)c1ccc([N+](=O)[O-])o1", "note": "[Compound 62, 5-Nitro-furan-2-carboxylic acid[3-(4-benzyl-piperidin-1-yl)-phenyl]-amide]", "MIC": 12.5},
      {"smiles": "O=C(Nc1ccc(N2CCC(Cc3ccccc3)CC2)cc1)c1ccc([N+](=O)[O-])o1", "note": "[Compound 57, 5-Nitro-furan-2-carboxylic acid[4-(4-benzyl-piperidin-1-y1)-phenyl]-amide]", "MIC": 3.1},
      {"smiles": "CN1CCN(c2cccc(CNC(=O)c3ccc([N+](=O)[O-])o3)c2)CC1", "note": "[Compound 68, 5-Nitro-furan-2-carboxylic acid 3-(4-methyl-piperazin-1-yl)-benzylamide]", "MIC": 3.1},
      {"smiles": "O=C(Nc1cccc(N2CCOCC2)c1)c1ccc([N+](=O)[O-])o1", "note": "[Compound 59, 5-Nitro-furan-2-carboxylic acid(3-morpholin-4-yl-phenyl)-amide]", "MIC": 3.1},
      {"smiles": "CN1CCN(c2cccc(NC(=O)c3ccc([N+](=O)[O-])o3)c2)CC1", "note": "[Compound 60, 5-Nitro-furan-2-carboxylic acid[3-(4-methyl-piperazin-1-yl)-phenyl]-amide]", "MIC": 12.5},
      {"smiles": "O=C(Nc1ccc(N2CCN(c3ccccn3)CC2)cc1)c1ccc([N+](=O)[O-])o1", "note": "[Compound 58, 5-Nitro-furan-2-carboxylic acid. [4-(4-pyridin-2-yl-piperazin-1-yl)-phenyl]-amide]", "MIC": "0.4 to 0.8"},
      {"smiles": "O=C(NCc1ccc(N2CCC(Cc3ccccc3)CC2)cc1)c1ccc([N+](=O)[O-])o1", "note": "[Compound 67, 5-Nitro-furan-2-carboxylic acid 4-(4-benzyl-piperidin-1-yl)-benzylamide]", "MIC": "< 0.1"},
      {"smiles": "O=C(Nc1ccc(N2CCN(Cc3ccccc3)CC2)cc1)c1ccc([N+](=O)[O-])o1", "note": "[Compound 56, 5-Nitro-furan-2-carboxylic acid[4-(4-benzyl-piperazin-1-yl)-phenyl]-amide]", "MIC": 0.8}
    ]},
    {"tested_on": "M. tuberculosis H37Ra", "assay": "MIC against M. tuberculosis H37Ra, micro broth dilution in microtiter plates", "conditions": "Mycobacterium tuberculosis, H37RA, Table 5; M. tuberculosis H37Ra, MIC90", "units": {"MIC": "µg/mL"}, "values": [
      {"smiles": "O=C(c1ccc([N+](=O)[O-])o1)N1CCC(O)(Cc2ccccc2)CC1", "note": "[Compound 79]", "MIC": 1.56},
      {"smiles": "CN1CCN(C(=O)c2ccc([N+](=O)[O-])o2)CC1", "note": "[Compound 76]", "MIC": 37.5},
      {"smiles": "O=C(c1ccc([N+](=O)[O-])o1)N1CCC(Cc2ccccc2)CC1", "note": "[Compound 72]", "MIC": 0.29},
      {"smiles": "O=C(c1ccc([N+](=O)[O-])o1)N1CCN(Cc2cccc(O)c2)CC1", "note": "[Compound 83]", "MIC": 0.8},
      {"smiles": "O=C(c1ccc([N+](=O)[O-])o1)N1CCN(Cc2ccccc2)CC1", "note": "[Compound 73]", "MIC": 0.59},
      {"smiles": "CC(=O)c1ccc(N2CCN(C(=O)c3ccc([N+](=O)[O-])o3)CC2)cc1", "note": "[Compound 91]", "MIC": "< 10.1"},
      {"smiles": "O=C(c1ccc([N+](=O)[O-])o1)N1CCN(Cc2ccc(O)cc2)CC1", "note": "[Compound 84]", "MIC": 1.56},
      {"smiles": "O=C(NCc1ccc2c(c1)OCO2)c1ccc([N+](=O)[O-])o1", "note": "[Compound 74]", "MIC": 0.15}
    ]},
    {"tested_on": "M. tuberculosis H37Ra", "assay": "MIC against M. tuberculosis H37Ra, micro broth dilution in microtiter plates", "conditions": "Mycobacterium tuberculosis, H37RA, Table 6; M. tuberculosis H37Ra, MIC90", "units": {"MIC": "µg/mL"}, "values": [
      {"smiles": "CN1CCN(c2ccc(CNC(=O)c3ccc([N+](=O)[O-])o3)cc2F)CC1", "note": "[Compound 100, 5-Nitro-furan-2-carboxylic acid 3-fluoro-4-(4-methyl-piperazin-1-yl)-benzylamide]", "MIC": 0.4},
      {"smiles": "O=C(NCc1ccc(N2CCOCC2)c(F)c1)c1ccc([N+](=O)[O-])o1", "note": "[Compound 102, 5-Nitro-furan-2-carboxylic acid 3-fluoro-4-morpholin-4-yl-benzylamide]", "MIC": 0.2},
      {"smiles": "CCOC(=O)N1CCN(c2ccc(CNC(=O)c3ccc([N+](=O)[O-])o3)cc2)CC1", "note": "[Compound 104, 4-(4-{[(5-Nitro-furan-2-carbonyl)-amino]-methyl}-phenyl)-piperazine-1-carboxylic acid ethyl ester]", "MIC": 0.004},
      {"smiles": "O=C(NCc1ccc(N2CCSCC2)cc1)c1ccc([N+](=O)[O-])o1", "note": "[Compound 92, 5-Nitro-furan-2-carboxylic acid 4-thiomorpholin-4-yl-benzylamide]", "MIC": 0.05},
      {"smiles": "CC(C)(C)OC(=O)N1CCN(c2ccc(CNC(=O)c3ccc([N+](=O)[O-])o3)cc2)CC1", "note": "[Compound 96, 4-(4-{[(5-Nitro-furan-2-carbonyl)-amino]-methyl}-phenyl)-piperazine-1-carboxylic acid tert-butyl ester]", "MIC": 0.0002},
      {"smiles": "CCCNC(=O)N1CCN(c2ccc(CNC(=O)c3ccc([N+](=O)[O-])o3)cc2)CC1", "note": "[Compound 105, 4-(4-{[(5-Nitro-furan-2-carbonyl)-amino]-methyl}-phenyl)-piperazine-1-carboxylic acid propylamide]", "MIC": 0.0125},
      {"smiles": "O=C(NCc1ccc(N2CCSCC2)c(F)c1)c1ccc([N+](=O)[O-])o1", "note": "[Compound 101, 5-Nitro-furan-2-carboxylic acid 3-fluoro-4-thiomorpholin-4-yl-benzylamide]", "MIC": 0.2}
    ]},
    {"tested_on": "M. tuberculosis H37Ra", "assay": "MIC against M. tuberculosis H37Ra, micro broth dilution in microtiter plates", "conditions": "Table 5; M. tuberculosis H37Ra, MIC90", "units": {"MIC": "µg/mL"}, "values": [
      {"smiles": "O=C(c1ccc([N+](=O)[O-])o1)N1CCN(c2ncccn2)CC1", "note": "[Compound 81]", "MIC": 0.1},
      {"smiles": "O=C(c1ccc([N+](=O)[O-])o1)N1CCN(c2ncccn2)CC1", "note": "[Compound 77]", "MIC": 0.025}
    ]}
  ]
}
